How the values were obtained:
C-1498/GFP cells [1] = experiment: Recombinant OPN on C-1498/GFP leukemia cell growth in vitro; assay type: cell-based, mouse
Protocol: (§1) To investigate the role of OPN as a candidate molecule, it was explored whether recombinant OPN is sufficient to reproduce the growth inhibition of leukemia cells in vitro. To this end, C-1498/GFP cells were cultured in wells with either (a) no OPN, (b) with 5 and 10 ug/ml of OPN. […] It was therefore concluded that recombinant osteopontin is sufficient to limit leukemic cell expansion. […] Given that PTH increases osteoblast production of OPN, it is likely that OPN participates in the preferential support of normal over leukemic cells in vivo with PTH stimulation of the stem cell niche.

C-1498/GFP cells [2] = experiment: Annexin staining of leukemia cells cultured with OPN; assay type: cell-based, mouse; conditions: FIG. 13a
Protocol: as §1

[3] = system: PTH-stimulated adenylate cyclase; conditions: cited from earlier work
renal PTH receptors = target: T1, renal PTH receptors (Homo sapiens, UniProt Q03431); conditions: cited from earlier work
T1 sequence (Q03431 27-593): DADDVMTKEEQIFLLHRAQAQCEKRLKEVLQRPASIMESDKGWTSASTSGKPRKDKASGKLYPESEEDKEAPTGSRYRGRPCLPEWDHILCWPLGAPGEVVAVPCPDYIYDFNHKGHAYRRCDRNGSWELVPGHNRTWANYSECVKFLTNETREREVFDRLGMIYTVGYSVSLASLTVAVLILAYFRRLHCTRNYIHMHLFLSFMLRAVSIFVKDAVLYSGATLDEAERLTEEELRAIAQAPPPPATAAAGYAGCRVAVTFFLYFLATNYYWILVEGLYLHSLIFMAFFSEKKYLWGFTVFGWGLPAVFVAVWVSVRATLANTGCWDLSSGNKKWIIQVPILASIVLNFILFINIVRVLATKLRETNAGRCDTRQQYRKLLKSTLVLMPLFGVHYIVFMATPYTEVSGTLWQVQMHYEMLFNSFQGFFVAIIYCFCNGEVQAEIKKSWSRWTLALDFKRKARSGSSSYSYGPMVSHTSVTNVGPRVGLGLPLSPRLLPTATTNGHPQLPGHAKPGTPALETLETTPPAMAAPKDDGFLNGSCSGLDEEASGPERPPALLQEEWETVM

peripheral blood cells = experiment: Complete blood count during cyclophosphamide chemotherapy cycles; assay type: in vivo, C57Bl/6 mice; conditions: cyclophosphamide 5 mg per cycle, G-CSF 5 μg/day 8 days
Protocol: (§2) Wild-type C57Bl/6 mice were treated with 5 mg of cyclophosphamide (Day 1). The day following injection of cyclophosphamide, mice received no treatment or were treated for 8 days with G-CSF (5 μg/day), 11 days with PTH (80 μg/kg/day) or a combination of G-CSF plus PTH. Mice that received a combination of both G-CSF and PTH received G-CSF treatment for 8 days and PTH treatment for 11 days. Following this treatment protocol, mice were injected with cyclophosphamide on Day 15 and treated with G-CSF, PTH or G-CSF and PTH as described above. The treatment protocol was then repeated for two subsequent cycles, as outlined in FIG. 7.
During the course of the four treatment cycles, peripheral blood complete blood count (CBC) analysis was performed every 2 to 3 days. This analysis involved the collection of 100 μl of peripheral blood from the tail vein of the mice, which was subsequently analyzed on a HEMAVET 850FS (Drew Scientific). To avoid any deleterious effects from repeated tail bleeds, each individual mouse was only bled once per week.

[4] = system: HSC pool in the bone marrow; experiment: HSC pool in bone marrow following chemotherapy (competitive transplant); assay type: in vivo, C57Bl/6 mice; conditions: G-CSF alone
Protocol: as §2
(§3) At the end of the four-cycle treatment with cyclophosphamide and G-CSF/PTH, the bone marrow was removed from the treated mice and competitive transplants into B6.SJL mice were performed to measure the maintenance of the HSC pool in the bone marrow. This involved mixing 5×10^5 BM cells from the treated C57Bl/6 mice (CD45.2) with 2.5×10^5 BM cells from the B6.SJL mice (CD45.1). These cells were then injected into lethally irradiated B6.SJL mice. Eighteen weeks following injection of the cells, peripheral blood was collected from the mice and the relative contribution of the HSCs from the treated animals was measured by flow cytometry for the CD45.2^+ cells. To assess the ability of the HSCs to be mobilized into the peripheral circulation, one week following treatment mice were mobilized with G-CSF (5 μg/day) for 5 days. Peripheral blood (300 μl) was collected from these mice and mixed with 2.5×10^5 BM cells from a B6.SJL mouse. These cells were injected into a lethally irradiated B6.SJL host. Eighteen weeks following injection of the cells, peripheral blood was collected from the mice and the relative contribution of the HSCs from the treated animals was measured by flow cytometry for the CD45.2^+ cells.

[5] = system: HSCs in the peripheral circulation; experiment: G-CSF mobilization of HSCs into peripheral circulation after chemotherapy; assay type: in vivo, C57Bl/6 mice; conditions: supportive growth factor therapy alone during chemotherapy
Protocol: as §2, §3

Osteopontin [OPN]
inhibition of leukemia cell growth (C-1498/GFP cells [1]; 5 and 10 ug/ml OPN, FIG. 13b): sufficient to reproduce the inhibition of leukemia cell growth | relative ability to limit primitive cell expansion (C-1498/GFP cells [1]; leukemic vs normal cells): greater in leukemic compared to normal cells | Annexin staining (mode of effect) (C-1498/GFP cells [2]): growth inhibition rather than accelerated apoptosis

PTH(1-25) (SVSEIQLMHNLGKHLNSMERVEWLR; Parathyroid hormone; UniProt P01270 32-56, looked up, fragment) [carboxyl-terminally truncated PTH fragment]
agonist activity [3]: inactive

PTH(1-34)
agonist activity [3]: full agonist

PTH(25-34) (RKKLQDVHNF; Parathyroid hormone; UniProt P01270 56-65, looked up, fragment)
receptor binding / affinity (renal PTH receptors): weak receptor binding activity

[Tyr^34]bPTH(7-34)NH2
receptor binding / affinity (renal PTH receptors): moderate affinity | agonist activity [3]: does not have any agonist activity

B1: granulocyte colony-stimulating factor (protein, UniProt P09919 31-207, looked up)
Granulocyte …: TPLGPASSLPQSFLLKCLEQVRKIQGDGAALQEKLVSECATYKLCHPEELVLLGHSLGIPWAPLSSCPSQALQLAGCLSQLHSGLFLYQGLLQALEGISPELGPTLDTLQLDVADFATTIWQQMEELGMAPALQPTQGAMPAFASAFQRRAGGVLVASHLQSFLEVSYRVLRHLAQP
notes: growth factor administered to augment recovery from chemotherapy-induced neutropenia
neutrophils count (NE) following chemotherapy (peripheral blood cells): significant increases | white blood count (WBC) following chemotherapy (peripheral blood cells): significant increases | HSC pool in the bone marrow following chemotherapy [4]: significant depletion of the HSC pool | mobilization of HSCs into the peripheral circulation [5]: little to no mobilization

Source: patent publication US8802104B2, “Parathyroid hormone receptor activation and stem and progenitor cell expansion” (The General Hospital Corporation, priority 2002, dated 2014)
